Read-outs that look alike come from different tables or passages of the source.
Tests used:
[1] = test system: histamine level of the plasma
From the text: (§1) Photographs of the ulcer and biopsies of the stomach mucosa were taken before and after each week of treatment.

[2] = test system: histamine levels in the fundus, corpus and antrum mucosa; details: 4 weeks
From the text: as §1

[3] = test system: gastric ulcers induced in rats by immobilisation; details: intraperitoneal; expressed in terms of dry (+)-catechin; immobilised 12 hours
Method: (a) on ulcers induced by stress caused by immobilization: After one week adaptation to the environment, female rats, (30 animals per group, 5 per cage), were immobilised during 12 hours by wrapping them, under narcosis with ether, in a plaster bandage.
After sacrifice of the animals, the dissected stomach was visually inspected and the lesions of the mucosa were scored according to their number and their intensity.
The products to be tested were administered, immediately before the test, by intraperitoneal injection of 2 ml of a freshly prepared saline solution. The doses tested varied from 0.1 to 50 mg/kg. The controls received 2 ml of saline.

[4] = test system: histamine level of the mucosa of the fundus, of the corpus and of the antrum; details: 3 days, healthy persons
[5] = target: T1, histidine decarboxylase (Oryctolagus cuniculus, UniProt G1TCH4); experiment: inhibition of histidine decarboxylase extracted from rabbit stomach, in vitro; details: read-out: IC50, inhibition of histidine decarboxylase, enzyme extracted from rabbit stomach
T1 sequence (G1TCH4 1-661): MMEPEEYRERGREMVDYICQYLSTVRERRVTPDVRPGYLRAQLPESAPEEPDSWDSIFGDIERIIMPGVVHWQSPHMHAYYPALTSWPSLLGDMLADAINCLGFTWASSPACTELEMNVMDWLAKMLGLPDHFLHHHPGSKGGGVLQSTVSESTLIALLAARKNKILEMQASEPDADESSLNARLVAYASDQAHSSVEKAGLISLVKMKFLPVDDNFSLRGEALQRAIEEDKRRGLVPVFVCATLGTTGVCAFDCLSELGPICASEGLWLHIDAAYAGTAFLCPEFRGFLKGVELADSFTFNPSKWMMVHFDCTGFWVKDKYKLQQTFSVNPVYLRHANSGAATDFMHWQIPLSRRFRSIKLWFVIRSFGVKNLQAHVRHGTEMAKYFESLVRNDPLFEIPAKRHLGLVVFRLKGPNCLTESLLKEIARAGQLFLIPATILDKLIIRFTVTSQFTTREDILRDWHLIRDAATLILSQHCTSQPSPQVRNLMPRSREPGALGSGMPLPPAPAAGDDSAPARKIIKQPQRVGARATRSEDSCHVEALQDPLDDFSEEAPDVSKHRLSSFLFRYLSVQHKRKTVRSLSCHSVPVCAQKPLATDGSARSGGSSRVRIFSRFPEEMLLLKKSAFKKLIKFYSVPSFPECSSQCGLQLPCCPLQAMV

[6] = test system: human duodenal ulcer; details: after 1 month of treatment, 1500 mg daily
From the text: as §1

[7] = test system: intragastric pH; details: in vivo
From the text: as §1

[8] = test system: histamine level in lung tissue; details: 30 mg/kg per os, 3 times a day during 3 days; five hours after the last treatment
Method: The drug was administered per os as a suspension in carboxymethyl cellulose (1% in water).

[9] = test system: histamine content in the lungs; details: 30 mg/kg intraperitoneal
[10] = test system: stress induced gastric ulcers; details: 30 mg/kg oral, 3 times a day during 3 days; immobilisation 12 hours; control group 38%
Method: The tested product was given 3 times a day during the 3 days preceding the experiment. The last administration was given 1 hour before immobilisation of the rats during 12 hours.

[11] = test system: histamine content in rat stomach mucosa; details: 30 mg/kg intraperitoneal
[12] = test system: necrosis of the gastric mucosa induced by acetic acid; details: 150 mg/kg orally, twice a day during 5 days
Method: In rats fasted for 24 hours, necrosis of the gastric mucosa was induced by intra-gastric administration of acetic acid (1 ml at 20%) one hour before treatment.
Accordingly the rats were sacrified, the stomach mucosa was photographed and the lesions were scored.

[13] = test system: rat peritoneal mastocytes; details: 10^-50 M (so in the source); 48/80 stimulated; 37° C., 10 minutes
[14] = test system: leucocytes; details: preincubation 10 minutes at 37° C., pollen or house dust 30 minutes
Method: Then the histamin level was measured in the leucocyte suspension and the supernatant liquid and compared to the values obtained from the controls.

[15] = test system: rat peritoneal mastocytes; details: 30 mg/kg per os, 3 times a day during 3 days; 0.5 μg/ml compound 48/80, 10 minutes at 37° C.
[16] = 1500 mg daily, duodenal ulcer patients

Compound: CN/C(=N/CCSCc1nc[nH]c1C)NC#N [cimetidine, reference compound]
- effect on the histamine levels in the plasma ([1]; 800 mg cimetidine daily, 4 weeks): no notable effect or induced an increase
- increase of the histamine levels in the plasma ([1]; in some cases, 800 mg cimetidine daily, 4 weeks): more than 10%
- effect on the histamine levels in the stomach mucosa ([2]; 800 mg cimetidine daily): no notable effect or induced an increase
- increase of the histamine levels in the stomach mucosa ([2]; in some cases, 800 mg cimetidine daily): more than 10%

Compound: (+)-catechin ascorbolysinate
- ED50 in the gastric ulcers induced in rats by immobilisation [3]: 1.5 mg/kg

Compound: (+)-catechin hydrochlorolysinate
- number of mastocytes ([4]; 500, 1000 or 1500 mg per day per os, same way as the histamine level): decreased in the same way
- decrease of the histamine level of the mucosa of the fundus, of the corpus and of the antrum ([4]; highest dose (1500 mg per day), per os, dose dependent): 30%
- IC50 [5]: 100 µM
- ED50 in the gastric ulcers induced in rats by immobilisation [3]: 5 mg/kg
- mean histamine level of the plasma after treatment ([1]; 1500 mg daily, decreased from 0.7 (±0.3) ng/ml, observed after one week, constant during the following 3 weeks): 0.3 (±0.1) ng/ml
- ulcer diameter of the other (not fully recovered) patients [6]: decreased significantly
- patients fully recovered ([6]; out of 11): 7 patients
- decrease of the histamine levels in the fundus, corpus and antrum mucosa [2, 16]: ~20%
- decrease of the number of mastocytes in the fundus, corpus and antrum mucosa [2, 16]: ~20%
- effect on the intragastric pH [7]: no effect
- decrease of the histamine level in the homogenized lung tissue compared to the control group [8]: 38%
- decrease of the histamine content in the lungs [9]: 38%
- proportion of rats with severe lesions [10]: 15%
- decrease of the histamine content in rat stomach mucosa [11]: 33%
- reduction of the number of animals with severe lesions [12]: 50%
- inhibition of release of histamine from rat peritoneal mastocytes [13]: 27%
- release inhibition, leucocytes ([14]; 10^-5 M): 45%
- release inhibition, leucocytes ([14]; 10^-6 M): 45%
- decrease of histamine release of the mastocytes compared to the controls [15]: 22%

Reference: patent US4507314A, “Drug for treating affections provoked by a too high histamine level, of the gastroduodenal mucosa and allergic affections” (Midit, Societe Fiduciaire, priority 1983, dated 1985)
